Assays:
hSERT [1] = biological target: T1, hSERT (Homo sapiens, UniProt P31645); test: Dissociation assay with [3H]-citalopram and hSERT membrane preparations; assay type: binding
Procedure: Dulbecco's modified Eagle's medium, fetal bovine serum, trypsin, and penicillin/streptomycin were purchased from Invitrogen. Cell culture flasks were from NUNC. MicroScint-20 scintillation mixture was from Packard. [^3H]-Citalopram (85 Ci/mmol) was a gift from H. Lundbeck A/S (Valby, Denmark). Fugene-6 transfection reagent was from Roche Molecular Biochemicals. All chemicals are commercially available. Stock solutions of the allosteric ligands were prepared as 100 mM in EtOH.
The pcDNA3 plasmid vector containing the hSERT gene was used for transfection.
17.5 μl Fugene-6 (Roche Molecular Biochemicals) were mixed with 280 μl Dulbecco's modified Eagle's medium, and incubated at room temperature for 5 minutes. 10 μg of hSERT plasmid were added and the mixture was further incubated at least 15 minutes. […] The cells were plated at 35% confluency in a 150 mm dish, and grown at 37° C. for 64 h. Prior to harvesting the dish was rinsed in PBS. Cells were harvested with a cell scraper in buffer 1 (50 mM Tris-base, 150 mM NaCl, 20 mM EDTA, pH 7.4). After centrifugation (3000 g at 4° C. for 10 mins), cells were suspended and homogenized with an IKA Ultra-Turrax from Rose Scientific Ltd (Edmonton, Alberta, Canada) for 20 s in buffer 1. Membranes were pelleted by ultracentrifugation (12 000 g at 4° C. for 15 min) and homogenization was repeated in buffer 1. Finally, after ultracentrifugation (12000 g, 4° C., 15 min) membranes were resuspended in 1 ml buffer 3 (50 mM Tris-base, 120 mM NaCl, 5 mM KCl, pH 7.4) and stored at −80° C.
Dissociation Assay with [^3H]-Citalopram and Membrane Preparations.
SERT-[^3H]-citalopram complex was formed by incubating hSERT membrane preparation and radioligand in buffer 3 during a 60 min incubation at 4° C. Radioligand was present at a concentration 10 times the Kd value. The time kinetic of dissociation was followed by adding 10 μL complex solution to 250 μL buffer 3 in 96-well plates and incubating subsequently for increasing time intervals at RT. Reactions were terminated by filtration through GF/C glass-fibre filters (Unifilter, Perkin Elmer Life Sciences), preincubated with 40 μl 0.5% polyethyleneimine, using a Pachard Bell cell harvester, and subsequently washed three times with water. Filters were soaked in 40 μl Microscint 20 scintillation liquid (Pachard Bell). Bound radioactivity was determined by direct counting of plates using a Packard Bell microplate scintillation counter. Dissociation curves were obtained by plotting residual binding vs. time of dissociation.
The concentrations of allosteric compound in the dissociation buffer range from 400-0.2 μM.
The relative off-rate is expressed as the off-rate of the radioligand at a given concentration of allosteric compound, normalized to the off-rate of radioligand in the absence of allosteric compound.
The maximum stabilization factor is defined as the estimated upper plateau of the sigmoidal response curve, and describes how many folds the off-rate of bound radioligand from SERT can be attenuated in the presence of increasing concentrations of allosteric compound in the dissociation buffer.

hSERT [2] = biological target: T1, hSERT; test: 5-HT uptake inhibition assay: allo-ligand potentiating effect on uptake inhibition by S-citalopram; assay type: cell-based; settings: [3H]5-HT uptake, hSERT-transfected HEK-293-MSR cells; allosteric ligand in the 600 nM range
Procedure: Cell lines expressing the serotonin transporter constitute the most popular in vitro screening system for classical antidepressants, which will inhibit the transporter in uptake of serotonin. The inhibitory potency of the allosteric ligands is determined and expressed as an IC50 value in that a lowering of the IC50 values, when the concentration of the allosteric ligands increases, indicates an add-on inhibitory effect due to the presence of the allosteric ligand.
Transfection of HEK-293-MSR Cell Cultures
For transfections, 0.2 μg of pcDNA3 plasmid vector containing a hSERT cDNA insert and 0.4 μl of Fugene6 (Roche) were used per cm2 of plating area. Plasmid and Fugene6 were mixed with DMEM according to the manufacturer's recommendations. HEK-293-MSR cells were treated with trypsin, suspended in growth media and added to the Plasmid/Fugene6 mixture. Transfected cells were dispensed into white 96-well growth plates (Corning) or 150 mm cell culture discs at 60-80% confluence.
5-HT Uptake Inhibition Assays
Uptake assays were performed 40-50 hours after transfection. […] Cells were lysed in 50 μl MicroScint-20 (Packard), and the radiolabeled serotonin accumulated in the cells was quantified in a Packard TopCounter NXT microplate scintillation counter. Exact [^3H]5-HT reaction concentrations were determined in a Packard TRI-CARB® Liquid scintillation analyzer. […]

T1 sequence (P31645 whole entry): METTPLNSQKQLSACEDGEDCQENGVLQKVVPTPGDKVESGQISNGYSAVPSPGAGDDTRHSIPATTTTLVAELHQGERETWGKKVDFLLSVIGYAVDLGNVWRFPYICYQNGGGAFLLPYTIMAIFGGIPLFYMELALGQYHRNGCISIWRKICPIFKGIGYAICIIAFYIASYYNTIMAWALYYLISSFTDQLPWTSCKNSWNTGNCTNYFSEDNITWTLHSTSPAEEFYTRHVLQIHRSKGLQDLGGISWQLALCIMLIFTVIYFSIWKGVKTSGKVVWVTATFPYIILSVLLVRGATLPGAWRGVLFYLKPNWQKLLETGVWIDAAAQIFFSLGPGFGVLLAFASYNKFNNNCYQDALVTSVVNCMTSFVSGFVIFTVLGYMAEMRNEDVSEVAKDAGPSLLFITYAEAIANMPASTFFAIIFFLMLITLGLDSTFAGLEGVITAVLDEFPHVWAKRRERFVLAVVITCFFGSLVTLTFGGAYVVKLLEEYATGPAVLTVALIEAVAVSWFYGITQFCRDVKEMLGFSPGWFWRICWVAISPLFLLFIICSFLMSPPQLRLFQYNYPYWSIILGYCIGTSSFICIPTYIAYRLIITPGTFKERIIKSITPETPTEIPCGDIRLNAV

N#CCSc1cccc2ccccc12 [Example 36, (Naphthalen-1-Ylsulfanyl)-Acetonitrile]
EC50 (hSERT [1]; concentration of allosteric compound inducing 50% attenuation of the off-rate of the radioligand from SERT, 10 μM fluoxetine in dissociation buffer, read-out: EC50): 700 nM | Max. Stability (maximum stabilization factor) (hSERT [1]; estimated upper plateau of sigmoidal response curve: how many folds the off-rate of bound radioligand from SERT can be attenuated, N/A = No activity): 27 | reduction of S-citalopram IC50 values (add-on effect) (hSERT [2]): up to 2 fold
